Laboratory results as given in patent publication US20220356174A1, “PYRIDIN-2-ONE COMPOUNDS USEFUL AS SMARCA2 ANTAGONISTS” (Epizyme, Inc., priority 2018, published 2022).

Each compound was assayed against T1, FL-SMARCA2 (full-length human SMARCA2 isoform 1) (Homo sapiens, UniProt P51531) (assay: SMARCA2 ATPase activity assay (ADP-Glo, chicken mononucleosome substrate)). Conditions: Table 3d.1; ATPase assay, enzyme 5 nM, ATP 250 uM, chicken mononucleosome 10 nM, 30 min preincubation; read-out: FL-SMARCA2 IC>50.
T1 construct: FLAG tag (YKDDDDK) (C); made in house; host or cells: Sf21 insect cells (baculovirus, pFastBacI)
Type: biochemical

T1 sequence (P51531 with tags, fused parts or gaps): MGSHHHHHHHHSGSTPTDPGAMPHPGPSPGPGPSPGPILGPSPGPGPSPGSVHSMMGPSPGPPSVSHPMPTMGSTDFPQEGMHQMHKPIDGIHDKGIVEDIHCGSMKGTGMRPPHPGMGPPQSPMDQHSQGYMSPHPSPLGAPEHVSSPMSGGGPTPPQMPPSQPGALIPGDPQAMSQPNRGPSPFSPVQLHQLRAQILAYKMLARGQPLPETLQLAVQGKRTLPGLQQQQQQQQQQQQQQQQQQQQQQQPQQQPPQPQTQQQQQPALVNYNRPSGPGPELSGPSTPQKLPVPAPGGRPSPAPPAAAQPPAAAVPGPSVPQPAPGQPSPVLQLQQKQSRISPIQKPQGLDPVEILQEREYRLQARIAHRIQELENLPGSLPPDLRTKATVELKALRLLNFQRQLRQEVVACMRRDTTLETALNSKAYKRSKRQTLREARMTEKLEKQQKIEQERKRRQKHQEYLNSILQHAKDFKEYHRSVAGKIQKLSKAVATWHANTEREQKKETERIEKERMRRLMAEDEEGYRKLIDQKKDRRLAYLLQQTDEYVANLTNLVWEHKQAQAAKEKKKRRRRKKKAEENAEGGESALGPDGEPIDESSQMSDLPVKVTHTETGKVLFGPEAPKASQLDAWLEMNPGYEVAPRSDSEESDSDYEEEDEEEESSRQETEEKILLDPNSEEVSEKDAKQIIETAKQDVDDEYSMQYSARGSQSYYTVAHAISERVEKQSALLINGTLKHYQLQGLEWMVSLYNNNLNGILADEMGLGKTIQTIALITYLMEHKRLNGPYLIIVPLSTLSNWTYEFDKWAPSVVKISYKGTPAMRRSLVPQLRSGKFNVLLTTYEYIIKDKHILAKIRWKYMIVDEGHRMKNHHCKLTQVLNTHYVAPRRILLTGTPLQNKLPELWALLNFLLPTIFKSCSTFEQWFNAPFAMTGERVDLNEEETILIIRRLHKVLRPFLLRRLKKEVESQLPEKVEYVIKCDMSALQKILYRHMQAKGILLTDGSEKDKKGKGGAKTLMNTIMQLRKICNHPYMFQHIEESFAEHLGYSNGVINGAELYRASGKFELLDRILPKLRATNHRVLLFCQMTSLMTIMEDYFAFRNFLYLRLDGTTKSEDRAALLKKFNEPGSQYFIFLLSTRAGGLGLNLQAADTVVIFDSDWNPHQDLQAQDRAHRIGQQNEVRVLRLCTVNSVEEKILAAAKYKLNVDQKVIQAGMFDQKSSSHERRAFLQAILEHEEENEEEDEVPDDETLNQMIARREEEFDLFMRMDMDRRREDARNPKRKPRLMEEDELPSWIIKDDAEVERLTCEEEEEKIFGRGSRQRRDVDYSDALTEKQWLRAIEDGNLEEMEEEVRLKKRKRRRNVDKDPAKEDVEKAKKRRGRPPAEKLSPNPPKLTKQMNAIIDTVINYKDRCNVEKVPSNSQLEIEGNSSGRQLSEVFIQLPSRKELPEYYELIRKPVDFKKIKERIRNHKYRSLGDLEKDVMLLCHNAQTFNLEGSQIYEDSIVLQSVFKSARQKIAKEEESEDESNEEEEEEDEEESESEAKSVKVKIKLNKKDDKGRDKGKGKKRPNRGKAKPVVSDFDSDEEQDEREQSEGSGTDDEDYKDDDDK

SMILES | IC50 [nM]
CNC(=O)C#Cc1cc(C(=O)Nc2cc(F)c(=O)n(CC(F)F)c2)sc1Cl [Compound 72d] | 481
C[C@]1(C#Cc2cc(C(=O)Nc3cc(F)c(=O)n(CC(F)F)c3)sc2Cl)C[C@@H](O)C1 [Compound 136d] | 41.9
O=C(Nc1cc(F)c(=O)n(CC(F)F)c1)c1cc(C#Cc2ccc3ccnn3c2)c(Cl)s1 [Compound 122d] | 253
O=C(Nc1cc(F)c(=O)n(CC(F)F)c1)c1cc(C#CCn2ccnc2)c(Cl)s1 [Compound 116d] | 252
O=C(Nc1cc(F)c(=O)n(CC(F)F)c1)c1cc(C#C[C@H]2CCC[C@@H](O)C2)c(Cl)s1 [Compound 120d] | 70
O=C1Cc2ncc(C#Cc3cc(C(=O)NC4=NC(CC(F)F)C(=O)C(F)=C4)sc3Cl)cc2N1 (stereo not shown) [Compound 58d] | 61.9
O=C(Nc1cc(F)c(=O)n(CC(F)F)c1)c1cc(C#Cc2ccc3cncn3c2)c(Cl)s1 [Compound 96d] | 38.1
Cc1cc(NC(=O)c2cc(C#N)c(C(F)(F)F)s2)cn(CC(F)F)c1=O [Compound 75d] | 948
N#Cc1cc(C(=O)Nc2cc(O)c(=O)n(CC(F)F)c2)sc1C(F)(F)F [Compound 88d] | 576
N#Cc1sc(C(=O)Nc2cc(F)c(=O)n(CC(F)F)c2)cc1C#CC1CCOCC1 [Compound 102d] | 19.4
Cn1cc(C#Cc2cc(C(=O)Nc3cc(F)c(=O)n(CC(F)F)c3)sc2Cl)ccc1=O [Compound 60d] | 18
O=C(Nc1cc(F)c(=O)n(CC(F)F)c1)c1cc(C#Cc2ccn(-c3ccccn3)c(=O)c2)c(Cl)s1 [Compound 97d] | 2700
CC(N)C#Cc1sc(C(=O)Nc2cc(F)c(=O)n(CC(F)F)c2)cc1Cl (stereo not shown) [Compound 131d] | > 50000

These compounds were tested on A549 cells (assay: High-throughput proliferation (HTP) assay for A549 cells (CellTiter-Glo, 7 days)). Conditions: Homo sapiens, 168 h, read-out: A549 SMARCA2 IC50.
Type: cell-based
Experimental: Thawing vials: A549 cells (ATCC #CCL-185™) were thawed from a cryovial containing approximately 1.6×10^6 cells frozen in 70% F12K medium, 20% HI-FBS and 10% DMSO. Cells were thawed by submerging the bottom half of the vial in a 37° C. water bath and gently flicked until almost thawed. The cells were transferred into a 15 mL conical tube containing 9 mL of F12K medium+10% HI-FBS and then centrifuged at 200×g for 4 min before drawing off the media without disturbing the cell pellet in order to remove the DMSO. The cells were resuspended again in 15 mL of F12K fresh complete media+10% HI-FBS and grown up in a T75 flask at 37° C. with 5% CO2 Incubator. Viability was measured to obtain baseline.
Frozen stock vials preparation: The cell culture was transferred to a 50 mL conical tube, spun down to remove medium, and resuspended at 1-2×10^6 cells/mL in complete medium containing 10% DMSO. The culture was then stored for 24 hours at −80 degree C., (with the initial rate of freezing is −1 degree C. per minute in a freezing container), then transferred and stored in liquid nitrogen.
(§1) Routine subculture: Sub-confluent cultures (70-80%) were split every 4 days, seeding out at 1-2×10^6 cells/75 cm^2.
Day 0: Assay ready plates were prepared by dispensing 50 nL of compound or DMSO in the appropriate wells of 384-well white CulturPlates using Echo550. Using the Multiflo, A549 cells were plated at 50 μL/well in F12K complete media+10% HI-FBS+1% pen/strep at cell density determined [1,250 cells/mL (62.5 cells/well)] from growth curve.
Treated cells were incubated at 37° C., 5% CO2, relative humidity >90% for 7 days. CellTiter-Glo (CTG) ATP detection reagent was prepared according to manufacturer's specifications. Cell assay plates were removed from the incubator and brought to room temperature (RT). Using the MultiDrop liquid handler, 30 μL of CTG were added per well. Plates were placed on the multidrop dispenser shake for 5 seconds at room temperature (RT). Plates were incubated for 30 minutes in the dark at RT before measuring luminescence using the Envison2104.
Data analysis: Using the DMSO control wells as the 0% inhibition (high signal) control and the 10 μM Doxorubicin control wells as the 100% inhibition (low signal) control, percent inhibition EC50s (inflection point) and IC50 s were calculated for the compound dose responses.

SMILES | IC50 [nM]
CNC(=O)C#Cc1cc(C(=O)Nc2cc(F)c(=O)n(CC(F)F)c2)sc1Cl [Compound 72d] | 5760
C[C@]1(C#Cc2cc(C(=O)Nc3cc(F)c(=O)n(CC(F)F)c3)sc2Cl)C[C@@H](O)C1 [Compound 136d] | 2220
O=C(Nc1cc(F)c(=O)n(CC(F)F)c1)c1cc(C#Cc2ccc3ccnn3c2)c(Cl)s1 [Compound 122d] | 8440
O=C(Nc1cc(F)c(=O)n(CC(F)F)c1)c1cc(C#CCn2ccnc2)c(Cl)s1 [Compound 116d] | 8920
O=C(Nc1cc(F)c(=O)n(CC(F)F)c1)c1cc(C#C[C@H]2CCC[C@@H](O)C2)c(Cl)s1 [Compound 120d] | 2120
O=C1Cc2ncc(C#Cc3cc(C(=O)NC4=NC(CC(F)F)C(=O)C(F)=C4)sc3Cl)cc2N1 (stereo not shown) [Compound 58d] | > 10000
O=C(Nc1cc(F)c(=O)n(CC(F)F)c1)c1cc(C#Cc2ccc3cncn3c2)c(Cl)s1 [Compound 96d] | 4440
Cc1cc(NC(=O)c2cc(C#N)c(C(F)(F)F)s2)cn(CC(F)F)c1=O [Compound 75d] | > 10000
N#Cc1cc(C(=O)Nc2cc(O)c(=O)n(CC(F)F)c2)sc1C(F)(F)F [Compound 88d] | > 10000
N#Cc1sc(C(=O)Nc2cc(F)c(=O)n(CC(F)F)c2)cc1C#CC1CCOCC1 [Compound 102d] | 1050
Cn1cc(C#Cc2cc(C(=O)Nc3cc(F)c(=O)n(CC(F)F)c3)sc2Cl)ccc1=O [Compound 60d] | 3650
O=C(Nc1cc(F)c(=O)n(CC(F)F)c1)c1cc(C#Cc2ccn(-c3ccccn3)c(=O)c2)c(Cl)s1 [Compound 97d] | > 10000
CC(N)C#Cc1sc(C(=O)Nc2cc(F)c(=O)n(CC(F)F)c2)cc1Cl (stereo not shown) [Compound 131d] | > 10000

What follows are compounds tested against FL-SMARCA4 (Homo sapiens, UniProt P51532) (assay: SMARCA4 ATPase activity assay (ADP-Glo, chicken mononucleosome substrate)). Conditions: FL-SMARCA4 IC50.
Sequence of FL-SMARCA4 (P51532 whole entry): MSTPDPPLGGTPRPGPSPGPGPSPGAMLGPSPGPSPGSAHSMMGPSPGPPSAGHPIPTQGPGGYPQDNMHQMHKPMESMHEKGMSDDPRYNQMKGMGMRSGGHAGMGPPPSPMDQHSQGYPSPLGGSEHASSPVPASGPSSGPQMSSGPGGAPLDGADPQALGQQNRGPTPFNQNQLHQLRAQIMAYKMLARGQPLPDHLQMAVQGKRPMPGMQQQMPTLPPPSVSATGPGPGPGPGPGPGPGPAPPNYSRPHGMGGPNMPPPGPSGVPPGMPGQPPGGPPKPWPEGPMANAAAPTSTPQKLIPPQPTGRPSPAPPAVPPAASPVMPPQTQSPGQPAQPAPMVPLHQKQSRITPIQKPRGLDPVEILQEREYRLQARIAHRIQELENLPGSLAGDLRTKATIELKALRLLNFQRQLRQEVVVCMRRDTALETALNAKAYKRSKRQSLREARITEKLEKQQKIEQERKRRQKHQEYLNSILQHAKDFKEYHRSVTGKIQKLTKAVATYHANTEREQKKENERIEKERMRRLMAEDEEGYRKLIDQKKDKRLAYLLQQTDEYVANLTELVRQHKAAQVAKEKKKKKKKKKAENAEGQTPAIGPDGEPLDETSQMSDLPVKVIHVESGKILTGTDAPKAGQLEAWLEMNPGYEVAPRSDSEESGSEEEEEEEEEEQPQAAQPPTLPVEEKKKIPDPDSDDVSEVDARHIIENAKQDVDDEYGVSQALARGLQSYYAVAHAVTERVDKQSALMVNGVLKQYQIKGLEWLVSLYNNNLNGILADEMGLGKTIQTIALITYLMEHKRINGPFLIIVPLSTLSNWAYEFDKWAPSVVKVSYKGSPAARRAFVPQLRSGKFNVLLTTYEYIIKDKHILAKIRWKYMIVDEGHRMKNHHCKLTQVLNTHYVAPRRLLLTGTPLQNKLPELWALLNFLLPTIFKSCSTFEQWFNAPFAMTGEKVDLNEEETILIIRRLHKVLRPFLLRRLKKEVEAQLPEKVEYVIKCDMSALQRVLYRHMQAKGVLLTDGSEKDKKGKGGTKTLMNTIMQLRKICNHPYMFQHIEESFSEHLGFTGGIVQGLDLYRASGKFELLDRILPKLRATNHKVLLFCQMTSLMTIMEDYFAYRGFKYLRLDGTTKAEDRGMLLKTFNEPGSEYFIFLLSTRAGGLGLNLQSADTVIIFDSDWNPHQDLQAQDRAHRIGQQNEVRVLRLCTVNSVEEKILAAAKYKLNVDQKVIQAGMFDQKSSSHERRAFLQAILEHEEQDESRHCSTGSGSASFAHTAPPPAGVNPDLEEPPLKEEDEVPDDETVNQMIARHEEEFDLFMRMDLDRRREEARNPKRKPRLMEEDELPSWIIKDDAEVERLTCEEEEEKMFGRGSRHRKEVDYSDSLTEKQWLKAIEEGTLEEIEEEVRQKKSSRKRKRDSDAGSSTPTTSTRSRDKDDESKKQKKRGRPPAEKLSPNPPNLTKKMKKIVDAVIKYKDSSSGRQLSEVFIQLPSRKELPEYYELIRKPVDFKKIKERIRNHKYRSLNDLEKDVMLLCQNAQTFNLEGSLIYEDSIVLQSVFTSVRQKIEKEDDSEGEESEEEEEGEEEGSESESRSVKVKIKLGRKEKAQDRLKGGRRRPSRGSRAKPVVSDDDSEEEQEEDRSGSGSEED

SMILES | IC50 [nM]
CNC(=O)C#Cc1cc(C(=O)Nc2cc(F)c(=O)n(CC(F)F)c2)sc1Cl [Compound 72d] | 1310
C[C@]1(C#Cc2cc(C(=O)Nc3cc(F)c(=O)n(CC(F)F)c3)sc2Cl)C[C@@H](O)C1 [Compound 136d] | 85.2
O=C(Nc1cc(F)c(=O)n(CC(F)F)c1)c1cc(C#Cc2ccc3ccnn3c2)c(Cl)s1 [Compound 122d] | 835
O=C(Nc1cc(F)c(=O)n(CC(F)F)c1)c1cc(C#CCn2ccnc2)c(Cl)s1 [Compound 116d] | 673
O=C(Nc1cc(F)c(=O)n(CC(F)F)c1)c1cc(C#C[C@H]2CCC[C@@H](O)C2)c(Cl)s1 [Compound 120d] | 201
O=C1Cc2ncc(C#Cc3cc(C(=O)NC4=NC(CC(F)F)C(=O)C(F)=C4)sc3Cl)cc2N1 (stereo not shown) [Compound 58d] | 102
O=C(Nc1cc(F)c(=O)n(CC(F)F)c1)c1cc(C#Cc2ccc3cncn3c2)c(Cl)s1 [Compound 96d] | 97.3
Cc1cc(NC(=O)c2cc(C#N)c(C(F)(F)F)s2)cn(CC(F)F)c1=O [Compound 75d] | 11300
N#Cc1cc(C(=O)Nc2cc(O)c(=O)n(CC(F)F)c2)sc1C(F)(F)F [Compound 88d] | 3970
N#Cc1sc(C(=O)Nc2cc(F)c(=O)n(CC(F)F)c2)cc1C#CC1CCOCC1 [Compound 102d] | 46.4
Cn1cc(C#Cc2cc(C(=O)Nc3cc(F)c(=O)n(CC(F)F)c3)sc2Cl)ccc1=O [Compound 60d] | 36.3
O=C(Nc1cc(F)c(=O)n(CC(F)F)c1)c1cc(C#Cc2ccn(-c3ccccn3)c(=O)c2)c(Cl)s1 [Compound 97d] | 3380
CC(N)C#Cc1sc(C(=O)Nc2cc(F)c(=O)n(CC(F)F)c2)cc1Cl (stereo not shown) [Compound 131d] | > 50000

These compounds were tested on H358 cells (assay: High-throughput proliferation (HTP) assay for H358 cells (CellTiter-Glo, 7 days)). Conditions: Homo sapiens, NCI-H358, 168 h, read-out: H358 SMARCA2 IC50.
Type: cell-based
Experimental: Thawing vials: H358 cells (ATCC #CRL-5807™) were thawed from a cryovial containing approximately 1.6×10^6 cells frozen in 70% RPMI 1640 medium, 20% HI-FBS and 10% DMSO. Cells were thawed by submerging the bottom half of the vial in a 37° C. water bath and gently flicked until almost thawed. The cells were removed and transferred into a 15 mL conical tube containing 9 mL RPMI 1640 medium+10% HI-FBS and then centrifuged 200×g for 4 min before drawing off the media without disturbing the cell pellet to remove the DMSO. The cells were resuspended again in 15 mL of RPMI 1640 fresh complete media+10% HI-FBS and grown up in a T75 flask at 37° C. with 5% CO2 Incubator. Viability was measured to obtain baseline.
Preparing frozen stock vials: Cell density was counted in a stock flask. The culture was transferred to a 50 mL conical tube and spun down to remove medium, and then resuspend at 1-2×10^6 cells/mL in complete medium containing 10% DMSO and transferred to a 1 mL per vial.
as §1
Day 0: Assay ready plates were prepared by dispensing 50 nL of compound stock or DMSO in the appropriate wells of 384-well white CulturPlates using Echo550. Using the Multiflo, H358 cells at 50 μL/well were plated in RPMI 1640 complete media+10% HI-FBS+1% pen/strep at cell density determined [20,000 cells/mL (1,000 cells/well)] from growth curve. Treated cells were inclubated at 37° C., 5% CO2, relative humidity >90% for 7 days. CellTiter-Glo (CTG) ATP detection reagent was prepared according to manufacturer's specifications. Cell assay plates were removed from incubator and bring to room temperature (RT).
Using the MultiDrop liquid handler, 30 μL of CTG were added per well. Plates were placed on the multidrop dispenser shake for 5 seconds at RT. Plates were incubated for 30 minutes in the dark at RT before measuring luminescence using the Envison2104.
Data analysis: Using the DMSO control wells as the 0% inhibition (high signal) control and the 10 uM Doxorubicin control wells as the 100% inhibition (low signal) control, percent inhibition EC50s (inflection point) and IC50s were calculated for the compound dose responses.

SMILES | IC50 [nM]
CNC(=O)C#Cc1cc(C(=O)Nc2cc(F)c(=O)n(CC(F)F)c2)sc1Cl [Compound 72d] | > 10000
C[C@]1(C#Cc2cc(C(=O)Nc3cc(F)c(=O)n(CC(F)F)c3)sc2Cl)C[C@@H](O)C1 [Compound 136d] | > 10000
O=C(Nc1cc(F)c(=O)n(CC(F)F)c1)c1cc(C#Cc2ccc3ccnn3c2)c(Cl)s1 [Compound 122d] | > 10000
O=C(Nc1cc(F)c(=O)n(CC(F)F)c1)c1cc(C#CCn2ccnc2)c(Cl)s1 [Compound 116d] | > 10000
O=C(Nc1cc(F)c(=O)n(CC(F)F)c1)c1cc(C#C[C@H]2CCC[C@@H](O)C2)c(Cl)s1 [Compound 120d] | > 10000
O=C1Cc2ncc(C#Cc3cc(C(=O)NC4=NC(CC(F)F)C(=O)C(F)=C4)sc3Cl)cc2N1 (stereo not shown) [Compound 58d] | > 10000
O=C(Nc1cc(F)c(=O)n(CC(F)F)c1)c1cc(C#Cc2ccc3cncn3c2)c(Cl)s1 [Compound 96d] | > 10000
Cc1cc(NC(=O)c2cc(C#N)c(C(F)(F)F)s2)cn(CC(F)F)c1=O [Compound 75d] | > 10000
N#Cc1cc(C(=O)Nc2cc(O)c(=O)n(CC(F)F)c2)sc1C(F)(F)F [Compound 88d] | > 10000
N#Cc1sc(C(=O)Nc2cc(F)c(=O)n(CC(F)F)c2)cc1C#CC1CCOCC1 [Compound 102d] | > 10000
Cn1cc(C#Cc2cc(C(=O)Nc3cc(F)c(=O)n(CC(F)F)c3)sc2Cl)ccc1=O [Compound 60d] | > 10000
O=C(Nc1cc(F)c(=O)n(CC(F)F)c1)c1cc(C#Cc2ccn(-c3ccccn3)c(=O)c2)c(Cl)s1 [Compound 97d] | > 10000
CC(N)C#Cc1sc(C(=O)Nc2cc(F)c(=O)n(CC(F)F)c2)cc1Cl (stereo not shown) [Compound 131d] | > 10000
